Measurements published in patent publication US20230295200A1 (REGENTS OF THE UNIVERSITY OF MICHIGAN, priority 2022, published 2023).

Assays:
[1] = target: T1, STAT6 protein (Homo sapiens, UniProt P42226); experiment: Fluorescence polarization (FP) binding assay, STAT6; details: FP competition, 5 nM fluorescein-labeled tracer, 200 nM protein, PBS pH7.4; read-out: Binding STAT6
T1 sequence (P42226 1-847): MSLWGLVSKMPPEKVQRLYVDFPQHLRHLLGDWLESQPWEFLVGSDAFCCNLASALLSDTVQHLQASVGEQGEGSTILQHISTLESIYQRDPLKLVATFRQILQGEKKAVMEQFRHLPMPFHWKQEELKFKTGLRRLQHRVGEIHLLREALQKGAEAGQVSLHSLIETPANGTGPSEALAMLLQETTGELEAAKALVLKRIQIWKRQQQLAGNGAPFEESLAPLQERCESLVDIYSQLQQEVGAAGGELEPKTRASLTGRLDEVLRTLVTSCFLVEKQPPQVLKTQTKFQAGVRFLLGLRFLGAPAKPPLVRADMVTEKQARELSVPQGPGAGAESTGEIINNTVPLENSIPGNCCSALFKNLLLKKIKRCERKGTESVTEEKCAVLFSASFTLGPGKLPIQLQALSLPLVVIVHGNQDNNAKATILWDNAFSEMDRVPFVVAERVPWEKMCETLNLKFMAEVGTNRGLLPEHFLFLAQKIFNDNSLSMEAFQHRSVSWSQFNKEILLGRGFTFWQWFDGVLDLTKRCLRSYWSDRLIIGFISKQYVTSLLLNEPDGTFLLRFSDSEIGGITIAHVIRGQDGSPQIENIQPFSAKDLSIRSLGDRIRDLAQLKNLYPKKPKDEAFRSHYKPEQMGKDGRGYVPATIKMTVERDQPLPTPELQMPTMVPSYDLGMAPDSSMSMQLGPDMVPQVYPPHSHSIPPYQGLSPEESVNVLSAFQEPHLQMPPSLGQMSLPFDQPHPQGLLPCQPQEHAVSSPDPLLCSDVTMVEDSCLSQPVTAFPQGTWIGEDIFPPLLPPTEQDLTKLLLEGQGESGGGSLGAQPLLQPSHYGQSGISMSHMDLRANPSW
Method in brief: (§1)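 5 nM fluorescein tracer + 200 nM STAT protein; PBS pH 7.4, 0.01% BGG, 0.01% Tween-20, 2 mM DTT; shake 15 min, 1 h RT equilibrium; FP read; nonlinear fit for inhibition constants.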

[2] = target: T2, STAT5A (Homo sapiens, UniProt P42229); experiment: Fluorescence polarization (FP) binding assay, STAT5A; details: FP competition, 5 nM fluorescein-labeled tracer, 200 nM protein, PBS pH7.4
T2 sequence (P42229 1-794): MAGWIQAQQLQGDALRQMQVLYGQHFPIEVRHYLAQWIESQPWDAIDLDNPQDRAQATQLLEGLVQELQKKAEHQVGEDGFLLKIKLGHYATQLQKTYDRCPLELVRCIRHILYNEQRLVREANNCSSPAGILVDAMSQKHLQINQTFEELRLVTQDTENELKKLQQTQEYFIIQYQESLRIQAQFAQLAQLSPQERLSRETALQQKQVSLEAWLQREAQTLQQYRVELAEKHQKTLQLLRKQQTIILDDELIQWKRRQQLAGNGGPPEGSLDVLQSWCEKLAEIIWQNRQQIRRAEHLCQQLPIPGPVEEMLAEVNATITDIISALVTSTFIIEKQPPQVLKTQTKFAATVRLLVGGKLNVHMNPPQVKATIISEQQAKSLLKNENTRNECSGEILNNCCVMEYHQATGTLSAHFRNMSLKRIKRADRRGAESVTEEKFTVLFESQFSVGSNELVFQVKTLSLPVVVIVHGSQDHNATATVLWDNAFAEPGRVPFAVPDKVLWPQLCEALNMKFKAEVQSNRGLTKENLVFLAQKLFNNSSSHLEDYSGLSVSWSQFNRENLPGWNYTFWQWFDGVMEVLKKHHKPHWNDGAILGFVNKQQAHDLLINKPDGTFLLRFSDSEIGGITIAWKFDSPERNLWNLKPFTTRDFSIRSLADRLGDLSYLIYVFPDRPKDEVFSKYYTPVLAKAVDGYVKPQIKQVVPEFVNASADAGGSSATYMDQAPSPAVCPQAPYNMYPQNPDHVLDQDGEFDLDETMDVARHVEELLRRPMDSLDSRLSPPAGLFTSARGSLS
Method in brief: as §1

Row | Compound | Ki [1] [µM] | Ki [2] [µM]
1 | O=C(NC(C(=O)N1CCC[C@H]1C(=O)N1CCc2ccccc2C1)C1CCNCC1)c1cc2cc(C(F)(F)P(=O)(O)O)ccc2[nH]1 (stereo partly drawn) [Compound 28, (difluoro(2-((2-oxo-1-(piperidin-4-yl)-2-((S)-2-(1,2,3,4-tetrahydroisoquinoline-2-carbonyl)pyrrolidin-1-yl)ethyl)carbamoyl)-1H-indol-5-yl)methyl)phosphonic acid] | > 10 | > 10
2 | O=C(/C=C/c1ccc(C(F)(F)P(=O)(O)O)cc1)NC(C(=O)N1CCC[C@H]1C(=O)N1CCc2ccccc2C1)C1CCNCC1 (stereo partly drawn) [Compound 29, (difluoro(4-((E)-3-oxo-3-((2-oxo-1-(piperidin-4-yl)-2-((S)-2-(1,2,3,4-tetrahydroisoquinoline-2-carbonyl)pyrrolidin-1-yl)ethyl)amino)prop-1-en-1-yl)phenyl)methyl)phosphonic acid] | > 10 | > 10
3 | CC(C)(C)[C@H](NC(=O)c1cc2cc(C(F)(F)P(=O)(O)O)ccc2[nH]1)C(=O)N1CCC[C@H]1C(=O)Nc1nc(-c2ccccc2)cs1 [Compound 30, ((2-(((S)-3,3-dimethyl-1-oxo-1-((S)-2-((4-phenylthiazol-2-yl)carbamoyl)pyrrolidin-1-yl)butan-2-yl)carbamoyl)-1H-indol-5-yl)difluoromethyl)phosphonic acid] | > 10 | > 10
4 | CC(C)(C)[C@H](NC(=O)c1cc2cc(C(F)(F)P(=O)(O)O)ccc2[nH]1)C(=O)N1CCC[C@H]1C(=O)Nc1ncc(-c2ccccc2)s1 [Compound 31, ((2-(((S)-3,3-dimethyl-1-oxo-1-((S)-2-((5-phenylthiazol-2-yl)carbamoyl)pyrrolidin-1-yl)butan-2-yl)carbamoyl)-1H-indol-5-yl)difluoromethyl)phosphonic acid] | > 10 | 0.1 to 1
5 | CN(C(=O)[C@@H]1CCCN1C(=O)[C@@H](NC(=O)c1cc2cc(C(F)(F)P(=O)(O)O)ccc2[nH]1)C(C)(C)C)C(c1ccccc1)c1ccccc1 [Compound 32, ((2-(((S)-1-((S)-2-(benzhydryl(methyl)carbamoyl)pyrrolidin-1-yl)-3,3-dimethyl-1-oxobutan-2-yl)carbamoyl)-1H-indol-5-yl)difluoromethyl)phosphonic acid] | > 10 | > 10
6 | CC(C)(C)[C@H](NC(=O)c1cc2cc(C(F)(F)P(=O)(O)O)ccc2[nH]1)C(=O)N1CCC[C@H]1c1ncc(-c2ccccc2)[nH]1 [Compound 33, ((2-(((S)-3,3-dimethyl-1-oxo-1-((S)-2-(5-phenyl-1H-imidazol-2-yl)pyrrolidin-1-yl)butan-2-yl)carbamoyl)-1H-indol-5-yl)difluoromethyl)phosphonic acid] | > 10 | > 10
7 | CC(=O)N1CCC(C(NC(=O)c2cc3cc(C(F)(F)P(=O)(O)O)ccc3[nH]2)C(=O)N2CCC[C@H]2C(=O)N2CCc3ccccc3C2)CC1 (stereo partly drawn) [Compound 34, ((2-((1-(1-acetylpiperidin-4-yl)-2-oxo-2-((S)-2-(1,2,3,4-tetrahydroisoquinoline-2-carbonyl)pyrrolidin-1-yl)ethyl)carbamoyl)-1H-indol-5-yl)difluoromethyl)phosphonic acid] | > 10 | > 10
8 | O=C(N[C@@H](CC1=CCN(Cc2ccccc2)CC1)C(=O)N1CCC[C@H]1C(=O)N1CCc2ccccc2C1)c1cc2cc(C(F)(F)P(=O)(O)O)ccc2[nH]1 [Compound 35, ((2-(((S)-3-(1-benzyl-1,2,3,6-tetrahydropyridin-4-yl)-1-oxo-1-((S)-2-(1,2,3,4-tetrahydroisoquinoline-2-carbonyl)pyrrolidin-1-yl)propan-2-yl)carbamoyl)-1H-indol-5-yl)difluoromethyl)phosphonic acid] | > 10 | > 10
9 | O=C(N[C@@H](CC1CCNCC1)C(=O)N1CCC[C@H]1C(=O)N1CCc2ccccc2C1)c1cc2cc(C(F)(F)P(=O)(O)O)ccc2[nH]1 [Compound 36, (difluoro(2-(((S)-1-oxo-3-(piperidin-4-yl)-1-((S)-2-(1,2,3,4-tetrahydroisoquinoline-2-carbonyl)pyrrolidin-1-yl)propan-2-yl)carbamoyl)-1H-indol-5-yl)methyl)phosphonic acid] | > 10 | > 10
10 | COC(=O)CCN(C(=O)[C@@H]1CCCN1C(=O)[C@@H](NC(=O)c1cc2cc(C(F)(F)P(=O)(O)O)ccc2s1)C(C)(C)C)c1ccccc1 [Compound 38, (difluoro(2-(((S)-1-((S)-2-((3-methoxy-3-oxopropyl)(phenyl)carbamoyl)pyrrolidin-1-yl)-3,3-dimethyl-1-oxobutan-2-yl)carbamoyl)benzo[b]thiophen-5-yl)methyl)phosphonic acid] | 1 to 10 | 1 to 10

Results, then the compound that gave them:

Row | Ki [1] [µM] | Ki [2] [µM] | Compound
11 | 0.1 to 1 | 1 to 10 | CC(C)(C)[C@H](NC(=O)c1cc2cc(C(F)(F)P(=O)(O)O)ccc2s1)C(=O)N1CCC[C@H]1C(=O)N(c1ccc(I)cc1)c1ccc(C(=O)OCc2ccccc2)cc1 [Compound 37, ((2-(((S)-1-((S)-2-((4-((benzyloxy)carbonyl)phenyl)(4-iodophenyl)carbamoyl)pyrrolidin-1-yl)-3,3-dimethyl-1-oxobutan-2-yl)carbamoyl)benzo[b]thiophen-5-yl)difluoromethyl)phosphonic acid]
12 | 0.1 to 1 | 1 to 10 | CC(C)(C)[C@H](NC(=O)c1cc2cc(C(F)(F)P(=O)(O)O)ccc2s1)C(=O)N1CCC[C@H]1C(=O)N(c1ccccc1)c1ccc(I)cc1 [Compound 39, (difluoro(2-(((S)-1-((S)-2-((4-iodophenyl)(phenyl)carbamoyl)pyrrolidin-1-yl)-3,3-dimethyl-1-oxobutan-2-yl)carbamoyl)benzo[b]thiophen-5-yl)methyl)phosphonic acid]
13 | 0.1 to 1 | 1 to 10 | CC(C)(C)[C@H](NC(=O)c1cc2cc(C(F)(F)P(=O)(O)O)ccc2[nH]1)C(=O)N1CCC[C@H]1C(=O)N(c1ccc(Cl)cc1)C1CCCCC1 [Compound 40, ((2-(((S)-1-((S)-2-((4-chlorophenyl)(cyclohexyl)carbamoyl)pyrrolidin-1-yl)-3,3-dimethyl-1-oxobutan-2-yl)carbamoyl)-1H-indol-5-yl)difluoromethyl)phosphonic acid]
14 | 0.1 to 1 | 1 to 10 | CNC(=O)c1ccc(N(C(=O)[C@@H]2CCCN2C(=O)[C@@H](NC(=O)c2cc3cc(C(F)(F)P(=O)(O)O)ccc3s2)C(C)(C)C)c2ccc(I)cc2)cc1 [Compound 42, (difluoro(2-(((S)-1-((S)-2-((4-iodophenyl)(4-(methylcarbamoyl)phenyl)carbamoyl)pyrrolidin-1-yl)-3,3-dimethyl-1-oxobutan-2-yl)carbamoyl)benzo[b]thiophen-5-yl)methyl)phosphonic acid]
15 | 0.1 to 1 | 0.1 to 1 | COC(=O)CCN(C(=O)[C@@H]1CCCN1C(=O)[C@@H](NC(=O)c1cc2cc(C(F)(F)P(=O)(O)O)ccc2s1)C(C)(C)C)c1ccc(Br)cc1 [Compound 43]
16 | 0.1 to 1 | 1 to 10 | CNC(=O)c1ccc(N(C(=O)[C@@H]2CCCN2C(=O)[C@@H](NC(=O)c2cc3cc(C(F)(F)P(=O)(O)O)ccc3s2)C(C)(C)C)c2ccc(Cl)cc2)cc1 [Compound 44, ((2-(((S)-1-((S)-2-((4-chlorophenyl)(4-(methylcarbamoyl)phenyl)carbamoyl)pyrrolidin-1-yl)-3,3-dimethyl-1-oxobutan-2-yl)carbamoyl)benzo[b]thiophen-5-yl)difluoromethyl)phosphonic acid]
